# What was measured:
# Experiment in all cases: radiometric filter-binding kinase assay
# [1] = biological target: BRSK1 (human) (UniProt Q8TDC3)
# [2] = biological target: BTK (human) (UniProt Q06187)
# [3] = biological target: CAMKK2 (human) (UniProt Q96RR4)
# [4] = biological target: CDK2 CCNA2 (human) (UniProt P20248+P24941)
# [5] = biological target: CSK (human) (UniProt P41240)
# [6] = biological target: CaMK1 (human) (UniProt Q14012)
# [7] = biological target: DYRK2 (human) (UniProt Q92630)
# [8] = biological target: EPHA2 (human) (UniProt P29317)
# Sequence of EPHA2 (human) (P29317 whole entry, looked up): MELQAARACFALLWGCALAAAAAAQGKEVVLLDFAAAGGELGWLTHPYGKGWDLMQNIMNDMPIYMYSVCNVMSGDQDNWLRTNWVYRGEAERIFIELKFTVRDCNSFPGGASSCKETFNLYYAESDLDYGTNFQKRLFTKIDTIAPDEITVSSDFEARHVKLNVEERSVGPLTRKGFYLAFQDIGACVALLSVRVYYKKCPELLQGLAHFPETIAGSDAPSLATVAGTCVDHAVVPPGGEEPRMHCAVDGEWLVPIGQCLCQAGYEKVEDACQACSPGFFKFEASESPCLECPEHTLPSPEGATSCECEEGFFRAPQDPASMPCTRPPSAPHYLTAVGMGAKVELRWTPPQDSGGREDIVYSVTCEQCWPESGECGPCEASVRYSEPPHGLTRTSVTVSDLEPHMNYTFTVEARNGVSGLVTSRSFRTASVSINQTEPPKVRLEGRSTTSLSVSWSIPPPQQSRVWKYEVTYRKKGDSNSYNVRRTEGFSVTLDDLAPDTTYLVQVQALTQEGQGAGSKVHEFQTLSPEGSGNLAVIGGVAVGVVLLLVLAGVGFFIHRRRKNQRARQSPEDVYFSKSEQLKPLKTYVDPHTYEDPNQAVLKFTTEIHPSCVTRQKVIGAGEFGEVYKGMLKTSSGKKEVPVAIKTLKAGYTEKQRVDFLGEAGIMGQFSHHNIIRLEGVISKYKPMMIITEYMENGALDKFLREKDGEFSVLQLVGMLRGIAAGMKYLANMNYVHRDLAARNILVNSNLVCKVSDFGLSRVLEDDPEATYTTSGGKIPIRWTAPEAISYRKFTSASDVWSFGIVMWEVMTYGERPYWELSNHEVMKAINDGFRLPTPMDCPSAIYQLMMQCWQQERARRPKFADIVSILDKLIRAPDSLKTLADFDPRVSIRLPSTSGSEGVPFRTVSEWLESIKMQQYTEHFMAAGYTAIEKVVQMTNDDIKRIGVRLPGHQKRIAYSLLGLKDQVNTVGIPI
# [9] = biological target: EPHA4 (human) (UniProt P54764)
# [10] = biological target: EPHB2 (human) (UniProt P29323); conditions: compound 0.1 µM
# [11] = biological target: ERBB4 (human) (UniProt Q15303)
# [12] = biological target: HIPK3 (human) (UniProt Q9H422)
# [13] = biological target: INSR (human) (UniProt P06213)
# [14] = biological target: INSRR (human) (UniProt P14616)
# [15] = biological target: JAK2 JH1 JH2 (human) (UniProt O60674)
# [16] = tested on: LCK (mouse); conditions: accession and sequence are those of the human protein
# [17] = biological target: MAP2K1 (human) (UniProt Q02750)
# [18] = biological target: MAPK15 (human) (UniProt Q8TD08)
# [19] = biological target: MAPKAPK2 (human) (UniProt P49137)
# [20] = biological target: MARK1 (human) (UniProt Q9P0L2)
# Sequence of MARK1 (human) (Q9P0L2 whole entry, looked up): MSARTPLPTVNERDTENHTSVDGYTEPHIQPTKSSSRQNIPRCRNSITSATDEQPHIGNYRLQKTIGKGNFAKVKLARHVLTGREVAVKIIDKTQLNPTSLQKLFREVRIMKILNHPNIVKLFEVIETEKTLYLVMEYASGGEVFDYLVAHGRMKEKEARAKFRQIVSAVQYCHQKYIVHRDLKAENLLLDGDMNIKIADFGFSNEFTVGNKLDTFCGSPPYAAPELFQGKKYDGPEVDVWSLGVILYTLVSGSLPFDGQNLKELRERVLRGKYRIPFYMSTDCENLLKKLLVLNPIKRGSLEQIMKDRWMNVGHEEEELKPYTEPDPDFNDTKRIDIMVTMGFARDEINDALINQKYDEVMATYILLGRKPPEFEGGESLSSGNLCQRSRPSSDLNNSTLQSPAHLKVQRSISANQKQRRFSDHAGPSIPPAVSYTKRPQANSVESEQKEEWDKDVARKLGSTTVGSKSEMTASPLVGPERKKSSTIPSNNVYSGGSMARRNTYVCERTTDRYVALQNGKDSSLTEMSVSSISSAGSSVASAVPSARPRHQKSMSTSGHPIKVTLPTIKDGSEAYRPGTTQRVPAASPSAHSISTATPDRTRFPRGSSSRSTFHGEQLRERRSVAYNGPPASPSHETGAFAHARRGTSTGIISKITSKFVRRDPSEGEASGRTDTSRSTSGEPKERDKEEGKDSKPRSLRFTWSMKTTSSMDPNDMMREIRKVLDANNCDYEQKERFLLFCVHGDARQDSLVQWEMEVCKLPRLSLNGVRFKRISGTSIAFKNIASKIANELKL
# [21] = biological target: MARK2 (human) (UniProt Q7KZI7)
# [22] = biological target: MINK1 (human) (UniProt Q8N4C8)
# [23] = biological target: MKNK1 (human) (UniProt Q9BUB5)
# [24] = biological target: MST4 (human) (UniProt Q9P289)
# [25] = biological target: NEK2 (human) (UniProt P51955)
# Sequence of NEK2 (human) (P51955 whole entry, looked up): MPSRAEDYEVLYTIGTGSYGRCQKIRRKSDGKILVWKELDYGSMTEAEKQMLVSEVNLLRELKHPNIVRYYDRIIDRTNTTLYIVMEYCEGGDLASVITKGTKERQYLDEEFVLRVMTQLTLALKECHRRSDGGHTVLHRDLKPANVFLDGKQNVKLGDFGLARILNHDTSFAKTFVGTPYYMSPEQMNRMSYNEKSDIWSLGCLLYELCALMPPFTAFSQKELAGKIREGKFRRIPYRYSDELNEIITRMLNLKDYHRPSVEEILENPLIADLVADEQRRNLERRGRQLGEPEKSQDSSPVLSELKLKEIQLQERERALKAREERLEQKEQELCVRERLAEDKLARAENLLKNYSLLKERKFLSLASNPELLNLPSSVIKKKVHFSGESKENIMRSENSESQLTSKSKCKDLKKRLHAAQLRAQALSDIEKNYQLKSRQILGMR
# [26] = biological target: NEK6 (human) (UniProt Q9HC98)
# Sequence of NEK6 (human) (Q9HC98 whole entry, looked up): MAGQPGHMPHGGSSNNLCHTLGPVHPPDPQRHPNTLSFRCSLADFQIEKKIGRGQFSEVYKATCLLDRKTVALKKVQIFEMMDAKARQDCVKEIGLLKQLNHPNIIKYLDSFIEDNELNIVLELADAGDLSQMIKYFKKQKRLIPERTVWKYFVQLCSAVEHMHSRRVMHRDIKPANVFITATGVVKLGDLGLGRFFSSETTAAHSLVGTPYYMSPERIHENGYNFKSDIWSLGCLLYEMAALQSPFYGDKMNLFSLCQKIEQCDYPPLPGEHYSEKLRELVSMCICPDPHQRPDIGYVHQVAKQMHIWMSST
# [27] = biological target: NUAK1 (human) (UniProt O60285)
# [28] = biological target: PAK7 (human) (UniProt Q9P286)
# [29] = biological target: PHKG1 (human) (UniProt Q16816)
# Sequence of PHKG1 (human) (Q16816 whole entry, looked up): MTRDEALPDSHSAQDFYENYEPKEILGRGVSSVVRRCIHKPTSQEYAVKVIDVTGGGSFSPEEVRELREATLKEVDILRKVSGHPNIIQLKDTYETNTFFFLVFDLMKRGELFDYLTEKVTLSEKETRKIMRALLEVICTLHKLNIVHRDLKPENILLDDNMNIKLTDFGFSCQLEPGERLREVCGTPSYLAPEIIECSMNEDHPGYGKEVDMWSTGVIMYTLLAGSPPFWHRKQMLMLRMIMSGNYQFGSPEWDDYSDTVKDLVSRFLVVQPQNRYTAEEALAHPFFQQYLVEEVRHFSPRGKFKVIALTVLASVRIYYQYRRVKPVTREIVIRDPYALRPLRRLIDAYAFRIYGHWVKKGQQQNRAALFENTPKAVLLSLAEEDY
# [30] = tested on: PRKAA1 or PRKAA2 (rat); conditions: accession and sequence are those of the human protein
# [31] = biological target: PRKACA (human) (UniProt P17612)
# [32] = biological target: PRKCA (human) (UniProt P17252)
# [33] = biological target: RIPK2 (human) (UniProt O43353)
# Sequence of RIPK2 (human) (O43353 whole entry, looked up): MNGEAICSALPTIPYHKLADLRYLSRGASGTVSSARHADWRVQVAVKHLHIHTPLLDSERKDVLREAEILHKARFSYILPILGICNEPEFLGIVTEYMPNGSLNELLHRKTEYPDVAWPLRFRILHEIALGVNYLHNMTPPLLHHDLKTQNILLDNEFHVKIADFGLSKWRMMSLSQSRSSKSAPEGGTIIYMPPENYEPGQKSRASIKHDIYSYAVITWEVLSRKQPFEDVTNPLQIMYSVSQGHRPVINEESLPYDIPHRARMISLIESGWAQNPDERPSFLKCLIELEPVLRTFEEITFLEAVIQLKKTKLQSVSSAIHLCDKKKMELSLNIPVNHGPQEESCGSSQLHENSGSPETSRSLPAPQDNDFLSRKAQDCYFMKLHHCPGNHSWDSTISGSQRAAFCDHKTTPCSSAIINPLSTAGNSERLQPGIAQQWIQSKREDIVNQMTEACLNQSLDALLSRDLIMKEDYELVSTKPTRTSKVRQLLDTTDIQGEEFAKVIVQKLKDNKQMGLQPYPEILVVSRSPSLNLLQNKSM
# [34] = biological target: RPS6KA5 KD1 KD2 (human) (UniProt O75582)
# [35] = biological target: SRPK1 (human) (UniProt Q96SB4)
# Sequence of SRPK1 (human) (Q96SB4 whole entry, looked up): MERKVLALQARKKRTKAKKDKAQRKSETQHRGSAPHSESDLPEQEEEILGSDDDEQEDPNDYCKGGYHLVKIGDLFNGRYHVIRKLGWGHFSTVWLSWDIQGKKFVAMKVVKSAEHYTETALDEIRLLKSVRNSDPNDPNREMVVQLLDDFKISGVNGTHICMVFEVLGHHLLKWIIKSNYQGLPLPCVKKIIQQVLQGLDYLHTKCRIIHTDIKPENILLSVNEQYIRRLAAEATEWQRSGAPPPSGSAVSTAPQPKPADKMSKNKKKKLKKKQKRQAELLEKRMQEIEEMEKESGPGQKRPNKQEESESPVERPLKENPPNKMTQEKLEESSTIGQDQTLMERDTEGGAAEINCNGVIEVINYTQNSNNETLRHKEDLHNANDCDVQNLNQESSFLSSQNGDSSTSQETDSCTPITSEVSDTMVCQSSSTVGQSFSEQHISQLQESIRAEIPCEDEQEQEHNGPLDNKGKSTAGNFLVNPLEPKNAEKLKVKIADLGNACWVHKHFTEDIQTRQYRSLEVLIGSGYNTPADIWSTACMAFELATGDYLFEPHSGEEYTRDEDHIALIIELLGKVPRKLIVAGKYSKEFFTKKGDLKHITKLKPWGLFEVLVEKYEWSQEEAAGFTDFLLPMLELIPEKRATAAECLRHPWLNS
# Sequence of CAMKK2 (human) (Q96RR4 whole entry, looked up): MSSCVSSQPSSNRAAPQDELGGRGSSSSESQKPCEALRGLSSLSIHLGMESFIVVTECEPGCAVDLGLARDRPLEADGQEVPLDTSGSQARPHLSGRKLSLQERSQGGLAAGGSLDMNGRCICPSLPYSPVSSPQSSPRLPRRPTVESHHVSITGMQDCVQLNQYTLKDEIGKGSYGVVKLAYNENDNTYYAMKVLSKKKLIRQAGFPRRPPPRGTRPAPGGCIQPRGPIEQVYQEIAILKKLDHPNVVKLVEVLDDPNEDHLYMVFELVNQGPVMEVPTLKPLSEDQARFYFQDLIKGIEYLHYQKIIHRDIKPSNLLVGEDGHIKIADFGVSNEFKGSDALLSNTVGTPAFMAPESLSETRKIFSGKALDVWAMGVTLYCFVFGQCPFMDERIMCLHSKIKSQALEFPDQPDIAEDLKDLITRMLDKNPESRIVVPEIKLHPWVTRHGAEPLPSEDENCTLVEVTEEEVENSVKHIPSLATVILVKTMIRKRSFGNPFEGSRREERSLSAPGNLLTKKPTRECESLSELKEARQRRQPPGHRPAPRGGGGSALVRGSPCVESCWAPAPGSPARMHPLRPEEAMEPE
smiles,measurement,setting,value
NC(=O)c1cc(-c2ccnc(NC3CCCCC3)c2)nc(N2CCNCC2)c1,residual activity,[1]; compound 0.1 µM,96%
same,residual activity,[1]; compound 1.0 µM,73%
same,residual activity,[1]; compound 10.0 µM,26%
same,residual activity,[2]; compound 0.1 µM,92%
same,residual activity,[2]; compound 1.0 µM,120%
same,residual activity,[2]; compound 10.0 µM,79%
same,residual activity,[3]; compound 0.1 µM,85%
same,residual activity,[3]; compound 1.0 µM,99%
same,residual activity,[3]; compound 10.0 µM,62%
same,residual activity,[4]; compound 0.1 µM,66%
same,residual activity,[4]; compound 1.0 µM,30%
same,residual activity,[4]; compound 10.0 µM,11%
same,residual activity,[5]; compound 0.1 µM,113%
same,residual activity,[5]; compound 1.0 µM,116%
same,residual activity,[5]; compound 10.0 µM,90%
same,residual activity,[6]; compound 0.1 µM,81%
same,residual activity,[6]; compound 1.0 µM,20%
same,residual activity,[6]; compound 10.0 µM,1%
same,residual activity,[7]; compound 0.1 µM,74%
same,residual activity,[7]; compound 1.0 µM,29%
same,residual activity,[7]; compound 10.0 µM,10%
same,residual activity,[8]; compound 0.1 µM,78%
same,residual activity,[8]; compound 1.0 µM,99%
same,residual activity,[8]; compound 10.0 µM,82%
same,residual activity,[9]; compound 0.1 µM,90%
same,residual activity,[9]; compound 1.0 µM,78%
same,residual activity,[9]; compound 10.0 µM,48%
same,residual activity,[10],105%
same,residual activity,[11]; compound 0.1 µM,83%
same,residual activity,[11]; compound 10.0 µM,73%
same,residual activity,[12]; compound 0.1 µM,95%
same,residual activity,[12]; compound 1.0 µM,92%
same,residual activity,[12]; compound 10.0 µM,101%
same,residual activity,[13]; compound 0.1 µM,89%
same,residual activity,[13]; compound 1.0 µM,86%
same,residual activity,[13]; compound 10.0 µM,93%
same,residual activity,[14]; compound 0.1 µM,100%
same,residual activity,[14]; compound 1.0 µM,107%
same,residual activity,[14]; compound 10.0 µM,97%
same,residual activity,[15]; compound 0.1 µM,82%
same,residual activity,[15]; compound 1.0 µM,87%
same,residual activity,[15]; compound 10.0 µM,89%
same,residual activity,[16]; compound 0.1 µM,84%
same,residual activity,[16]; compound 1.0 µM,30%
same,residual activity,[16]; compound 10.0 µM,9%
same,residual activity,[17]; compound 0.1 µM,86%
same,residual activity,[17]; compound 1.0 µM,77%
same,residual activity,[17]; compound 10.0 µM,49%
same,residual activity,[18]; compound 0.1 µM,63%
same,residual activity,[18]; compound 1.0 µM,26%
same,residual activity,[18]; compound 10.0 µM,4%
same,residual activity,[19]; compound 0.1 µM,99%
same,residual activity,[19]; compound 1.0 µM,72%
same,residual activity,[19]; compound 10.0 µM,22%
same,residual activity,[20]; compound 0.1 µM,51%
same,residual activity,[20]; compound 1.0 µM,94%
same,residual activity,[20]; compound 10.0 µM,76%
same,residual activity,[21]; compound 0.1 µM,97%
same,residual activity,[21]; compound 1.0 µM,63%
same,residual activity,[21]; compound 10.0 µM,31%
same,residual activity,[22]; compound 0.1 µM,65%
same,residual activity,[22]; compound 1.0 µM,13%
same,residual activity,[22]; compound 10.0 µM,2%
same,residual activity,[23]; compound 0.1 µM,95%
same,residual activity,[23]; compound 1.0 µM,38%
same,residual activity,[23]; compound 10.0 µM,7%
same,residual activity,[24]; compound 0.1 µM,117%
same,residual activity,[24]; compound 1.0 µM,107%
same,residual activity,[24]; compound 10.0 µM,95%
same,residual activity,[25]; compound 0.1 µM,111%
same,residual activity,[25]; compound 1.0 µM,129%
same,residual activity,[25]; compound 10.0 µM,113%
same,residual activity,[26]; compound 0.1 µM,86%
same,residual activity,[26]; compound 1.0 µM,87%
same,residual activity,[26]; compound 10.0 µM,42%
same,residual activity,[27]; compound 1.0 µM,17%
same,residual activity,[27]; compound 10.0 µM,32%
same,residual activity,[28]; compound 0.1 µM,97%
same,residual activity,[28]; compound 1.0 µM,90%
same,residual activity,[28]; compound 10.0 µM,71%
same,residual activity,[29]; compound 0.1 µM,82%
same,residual activity,[29]; compound 1.0 µM,29%
same,residual activity,[29]; compound 10.0 µM,5%
same,residual activity,[30]; compound 0.1 µM,97%
same,residual activity,[30]; compound 1.0 µM,61%
same,residual activity,[30]; compound 10.0 µM,20%
same,residual activity,[31]; compound 0.1 µM,105%
same,residual activity,[31]; compound 1.0 µM,109%
same,residual activity,[31]; compound 10.0 µM,93%
same,residual activity,[32]; compound 0.1 µM,97%
same,residual activity,[32]; compound 1.0 µM,95%
same,residual activity,[32]; compound 10.0 µM,90%
same,residual activity,[33]; compound 0.1 µM,96%
same,residual activity,[33]; compound 1.0 µM,96%
same,residual activity,[33]; compound 10.0 µM,79%
same,residual activity,[34]; compound 0.1 µM,97%
same,residual activity,[34]; compound 1.0 µM,109%
same,residual activity,[34]; compound 10.0 µM,79%
same,residual activity,[35]; compound 0.1 µM,105%
same,residual activity,[35]; compound 1.0 µM,86%
same,residual activity,[35]; compound 10.0 µM,46%
